“And” between values parts separate entries of the source, which are not always exact repeats. Identical values can stand only once.
Legend:
[1] = Human HepG2 cell viability assay in 384 well format; type: toxicity, cell-based; set-up: dose 125 nL, time 70.5 hour; cytotoxicity at 70.5 h: concentration not given beside the values; settings: HepG2 cells, read-out: Inhibition
[2] = Human HepG2 cell viability dose-response assay; type: toxicity, cell-based

Compound | cytotoxicity at 70.5 h [1] | HILLSLOPE [2] | TOP [2] | pXC50 [2] | BOTTOM [2]
CCCNc1cc(-c2c[nH]nc2C2CCN(C(=O)C3CCC3)C2)ccn1 (stereo not drawn) | 96.6% | 3.782 and 3.402 | 97.22 and 96.9 | 6.441 and 6.523 | 
CN1CCC(c2n[nH]c3ncccc23)C1.O=CO (stereo not drawn) | 81.6% | 2.128 and 2.318 | 100 | 4.946 and 4.92 | 
COc1ccc(OCCN2CCC(N3CCNC3=O)CC2)cc1 | 80.5% | 1.006 and 1.131 | 99.89 and 100 | 4.882 and 4.993 | 
CC(O)CN1CCC(CNCc2c[nH]nc2C(C)(C)C)CC1 (stereo not drawn) | 70.3% | 0 | 0 | < 4.53 | 0
C/N=C1\c2cc3cc(OC)ccc3n2CCN1Cc1ccccc1.O=C(O)C(F)(F)F | 68.5% | 1.421 and 1.435 | 100 | 5.16 and 5.151 | -10.9 and -4.699
COc1ccc(C2CCCN2c2nnc(C)s2)c(OC)c1 (stereo not drawn) | 64.4% | 0 | 0 | < 4.53 | 0
CC(C)(C)c1cn2c(n1)C(CNCc1cnn3ccccc13)CCC2 (stereo not drawn) | 71.2% | 1.1 and 1.076 | 100 | 5.268 and 5.282 | -11.51 and -11.88
CCCn1ncc(-c2ccnc(NC3CC(C)(C)NC(C)(C)C3)n2)c1C | 80.1% | 0 | 0 | < 4.53 | 0
COCCn1c2c(ccc1=O)CC(NCc1cnn(C)c1)CC2 (stereo not drawn) | 101% | 0 | 0 | < 4.53 | 0
CCC(=O)Nc1ccc2c(c1)CN(C(=O)c1ccco1)CC2 | 66.1% | 0 | 0 | < 4.53 | 0
CCN(CC)c1nc(Nc2cccc(C(C)O)c2)nc2ccccc12 (stereo not drawn) | 65% | 3.369 and 3.239 | 95.36 and 94.66 | 5.073 and 5.085 | -6.556 and -9.604
COCc1cc(N(C)Cc2c(C)nn(C)c2C)n2nccc2n1 | 64.9% | 0 | 0 | < 4.53 | 0
Cl.Clc1cccc(N[C@H]2CCCN[C@H]2Cc2ccccc2)c1 | 104% | 10.78 and 7.141 | 102.1 and 102.6 | 5.327 and 5.334 | 3.022 and 5.09
Cc1cc(C(=O)NCC(O)c2c(Cl)cccc2Cl)nn1C (stereo not drawn) | 71.4% | 0 | 0 | < 4.53 | 0
CNc1cc(C)nc(NCc2cc(C)cc3c(C)c(C)[nH]c23)n1 | 67.2% | 2.624 and 2.705 | 104.6 and 104.5 | 5.463 and 5.453 | -6.522 and -8.24
CC(C)(C)c1cn2c(n1)C(CNCc1ccccn1)CCC2 (stereo not drawn) | 70.8% | 1.336 and 1.545 | 100 and 90.93 | 5.194 and 5.33 | -8.279 and -9.133
Cc1nc(CN2CCCC(N(C)Cc3cnn(C)c3)C2)no1 (stereo not drawn) | 89.5% | 0 | 0 | < 4.53 | 0
CCc1[nH]c2c(CNc3nc(C)cc(NC)n3)cc(C)cc2c1C | 99.9% | 3.393 and 3.303 | 104.5 and 105 | 5.219 and 5.191 | -3.977 and -5.003
COCCN1CCN(Cc2cccc(C(N)=O)c2)CC1C (stereo not drawn) | 71.2% | 0 | 0 | < 4.53 | 0
Cc1cnc(C(=O)N2CCCC(n3ccnc3C)C2)cn1 (stereo not drawn) | 61.9% | 0 | 0 | < 4.53 | 0
Cc1cc(NC(=O)CN2CCn3c(nnc3C(C)C)C2)no1 | 67.5% | 0 | 0 | < 4.53 | 0
CCS(=O)(=O)N1CCc2ccc(NC(=O)Nc3ccc(F)cc3F)cc21 | 61% | 1.034 and 0.9987 | 101.1 and 100 | 4.643 and 4.737 | -8.818 and -13.27
O=C(Cn1cnc2ccccc2c1=O)Nc1cc(C2CC2)n[nH]1 | 107% | 2.407 and 2.226 | 101 and 100.4 | 6.137 and 6.176 | -7.289 and -9.306
COc1cc(OC)c(C2Nc3cc(Cl)ccc3C3=NCCN32)cc1OC (stereo not drawn) | 73.2% | 0.8757 and 0.9571 | 114.1 and 108.1 | 4.986 and 5.042 | 

Compound | cytotoxicity at 70.5 h [1] | HILLSLOPE [2] | TOP [2] | pXC50 [2] | BOTTOM [2]
CC(=O)N1CCN(S(=O)(=O)c2ccc(C)c(F)c2)CC1 | -4.35% |  |  |  | 
CS(=O)(=O)c1ccc(Cl)c(C(=O)NCCC2=CCCCC2)c1 | 32.9% |  |  |  | 
Cc1csc(Nc2nccnc2C2CCCN2S(C)(=O)=O)n1 (stereo not drawn) | -12.8% |  |  |  | 
O=C(NCc1cccnc1N1CCCCC1)c1ccc2[nH]nnc2c1 | 41.6% |  |  |  | 
COCC1CC2(CCN(Cc3ccncc3)CC2)CN1C(C)C (stereo not drawn) | -7.56% |  |  |  | 
CSCC[C@H](NC(C)=O)C(=O)N(C)Cc1ccc(-n2cccn2)cc1 | 23.9% |  |  |  | 
COCCN1CCCC(O)(CN2CCN(Cc3ccncc3)CC2)C1=O (stereo not drawn) | -8.23% |  |  |  | 
CCS(=O)(=O)N1C[C@@H](C(=O)NC(C)C)[C@@]2(Cc3ccccc3C(=O)N2)C1 | -11.3% |  |  |  | 
CCCc1cc(NC(=O)c2ccc(Cl)c(N3CCNC3=O)c2)n[nH]1 | 11.9% |  |  |  | 
Cc1noc(C)c1CN1CC[C@H]2[C@H]1CCN2CC1CCOCC1 | -5.25% |  |  |  | 
COCCO[C@H]1CCN(Cc2ccoc2)[C@H]1Cc1cccnc1 | -0.128% |  |  |  | 
COC(=O)c1ccoc1CN(C)Cc1ccccc1 | -0.994% |  |  |  | 
Cn1c(NCC(O)c2ccccc2F)c(C#N)c(=O)n(C)c1=O (stereo not drawn) | -1.35% |  |  |  | 
Cc1cc(=O)c(C(=O)N2CCCCC2c2ccc(F)cc2)c[nH]1 (stereo not drawn) | -4.63% |  |  |  | 
CCN1CCCN(c2ncccc2C(=O)N2CCCCC2)CC1 | 9.71% |  |  |  | 
O=C(c1ccno1)N1CC[C@@H]2O[C@@H](COCCN3CCCC3)CC[C@@H]21 | -17.9% |  |  |  | 
O=C1CCCN1CCCC(=O)N1CCCC(c2ccn[nH]2)C1 (stereo not drawn) | -12% |  |  |  | 
COCCn1ccnc1CN(Cc1ccccn1)Cc1sccc1C | -7.84% |  |  |  | 
CNC(=O)c1sc(C2CCCC2)nc1C | -5.12% |  |  |  | 
CCOc1ncnc2c1CCN(C(=O)NCc1cccnc1)CC2 | 6.36% |  |  |  | 
CC(C)CS(=O)(=O)N1C[C@H]2C[C@H](C(=O)N(C)C)[C@@H](C1)O2 | -1.1% |  |  |  | 
CC(c1ccncc1)N1Cc2nc(N(C)C)ncc2C1=O (stereo not drawn) | -2.18% |  |  |  | 
CCS(=O)(=O)N1CCN(C(=O)NC(C)C)CC2(CC(=O)N(C)C2)C1 (stereo not drawn) | -7.37% |  |  |  | 
CN1CC[C@H](N(Cc2ccccc2)Cc2ccccc2)C[C@H](O)C1 | 11.2% |  |  |  | 

Compound | cytotoxicity at 70.5 h [1] | HILLSLOPE [2] | TOP [2] | pXC50 [2] | BOTTOM [2]
O=C(NCC(F)(F)F)c1ccc(-c2ccco2)[nH]c1=O | -4.71% |  |  |  | 
COc1ccccc1CC(=O)N1CCCC(n2nc(C)cc2C)C1 (stereo not drawn) | 2.04% |  |  |  | 
Cc1cc(C)n(CC(=O)NC(Cc2ccsc2)c2ccccn2)c(=O)n1 (stereo not drawn) | 13.9% |  |  |  | 
CN(C(=O)c1cccn1C)C1CCC(NC(=O)OC(C)(C)C)CC1 (stereo not drawn) | -9.69% |  |  |  | 
Cc1noc(C)c1CN1C[C@@H]2C[C@@H](C)O[C@@H]2C1 | -3.08% |  |  |  | 
Cc1nnc(NC(=O)CN(C)C2CCCN(c3cccnn3)C2)s1 (stereo not drawn) | 1.26% |  |  |  | 
O=C(c1cccnc1)N1Cc2[nH]nc(COCCO)c2C1 | -4.06% |  |  |  | 
O=C(c1ccc(S(=O)(=O)N2CCSCC2)cc1)N1CCC(O)C1 (stereo not drawn) | -17.3% |  |  |  | 
CNC(=O)N1C[C@H]2C[C@H](C(=O)Nc3ccccc3)[C@@H](C1)O2 | -7.41% |  |  |  | 
Cc1cccn2cc(CC(=O)N(CCN(C)C)CC3CCCO3)nc12 (stereo not drawn) | 17.3% |  |  |  | 
CN(C)[C@@H]1CO[C@H](CNC(=O)c2ccccc2)[C@H]1O | -8.77% |  |  |  | 
Cc1cc(C)nc(CN(C)C(=O)c2ccccc2C2CCNC2)c1 (stereo not drawn) | -5.21% |  |  |  | 
O=C1CO[C@@H]2CN(C(=O)CCc3ccccc3)C[C@H]2N1 | -5.06% |  |  |  | 
CCS(=O)(=O)N(C)C(=O)c1cc(C)n(-c2cccc(OC)c2)c1C | 27.9% |  |  |  | 
Cc1nn(C)c2nc(N(C)CC3CCN(CC(C)C)C3)sc12 (stereo not drawn) | 1.29% |  |  |  | 
COc1ccc(OCC(=O)NS(=O)(=O)c2cc(C)ccc2C)cc1 | -6.75% |  |  |  | 
CCc1cnc(N)nc1NCCCN1CCCCC1CO (stereo not drawn) | -8.8% |  |  |  | 
COc1cc(CNCC(O)c2ccc(C)cc2)cc2c1OCCO2 (stereo not drawn) | 4.82% |  |  |  | 
Cc1ccc(NC2CCN(C(=O)c3cccc4[nH]ncc34)CC2)nn1 | -4.9% |  |  |  | 
Cc1cccc(-c2c[nH]c(C3CCCN3C(=O)C3CCOCC3)n2)c1 (stereo not drawn) | -10.3% |  |  |  | 
CCCN1C[C@H]2CC[C@@H]1CN(C(=O)Cn1c(C)cc(C)nc1=O)C2 | -14.9% |  |  |  | 
CC(C)CN1CCc2[nH]cnc2C12CCN(C(=O)c1cncn1C)CC2 | -5.88% |  |  |  | 
Cc1ccc(-c2cc(CN3CCc4cncnc4C3)on2)cc1 | -10.9% |  |  |  | 
